From patent US12077503B2, “Substituted cyclic amides and their use as herbicides” (FMC CORPORATION, priority 2015, dated 2024)

Key:
Type in all cases: in vivo
Kochia (Kochia scoparia) [1] = assay: Test A preemergence; details: Bassia scoparia, pre-emergence, 240 h, 0 to 100 scale where 0 is no effect and 100 is complete control, read-out: Kochia plant response rating
Procedure, shortened: (§1)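 Each rating is a visual injury score from 0 to 100 given about 10 d after treatment, judged against untreated controls kept alongside in the greenhouse. In loam soil–sand blend, seeds got a preemergence directed soil spray, while postemergence plants were 2 to 10 cm tall at spraying.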

[2] = test system: barnyardgrass (Echinochloa crus-galli); assay: Test A preemergence; details: Echinochloa crus-galli, pre-emergence, 240 h, 0 to 100 scale where 0 is no effect and 100 is complete control, read-out: Barnyardgrass plant response rating
Procedure, shortened: as §1

[3] = test system: giant foxtail (Setaria faberii); assay: Test A preemergence; details: Setaria faberi, pre-emergence, 240 h, 0 to 100 scale where 0 is no effect and 100 is complete control, read-out: Foxtail, Giant plant response rating
Procedure, shortened: as §1

[4] = test system: pigweed (Amaranthus retroflexus); assay: Test A preemergence; details: Amaranthus retroflexus, pre-emergence, 240 h, 0 to 100 scale where 0 is no effect and 100 is complete control, read-out: Pigweed plant response rating
[5] = test system: ragweed (common ragweed, Ambrosia elatior); assay: Test A preemergence; details: Ambrosia artemisiifolia, pre-emergence, 240 h, 0 to 100 scale where 0 is no effect and 100 is complete control, read-out: Ragweed plant response rating
Procedure, shortened: as §1

[6] = test system: ryegrass, Italian (Italian ryegrass, Lolium multiflorum); assay: Test A preemergence; details: Lolium multiflorum, pre-emergence, 240 h, 0 to 100 scale where 0 is no effect and 100 is complete control, read-out: Ryegrass, Italian plant response rating
Procedure, shortened: as §1

[7] = test system: Galium (catchweed bedstraw, Galium aparine); assay: Test A postemergence; details: Galium, post-emergence, 240 h, Postemergence, read-out: Galium plant response rating (0 to 100 scale)
Procedure, shortened: as §1

Kochia (Kochia scoparia) [8] = assay: Test A postemergence; details: Bassia scoparia, post-emergence, 240 h, Postemergence, read-out: Kochia plant response rating (0 to 100 scale)
Procedure, shortened: as §1

[9] = test system: barnyardgrass (Echinochloa crus-galli); assay: Test A postemergence; details: Echinochloa crus-galli, post-emergence, 240 h, Postemergence
Procedure, shortened: as §1

[10] = test system: blackgrass (Alopecurus myosuroides); assay: Test A postemergence; details: Alopecurus myosuroides, post-emergence, 240 h, Postemergence, read-out: Blackgrass plant response rating (0 to 100 scale)
Procedure, shortened: as §1

corn (Zea mays) = assay: Test A postemergence; details: Zea mays, post-emergence, 240 h, Postemergence, read-out: Corn plant response rating (0 to 100 scale)
Procedure, shortened: as §1

[11] = test system: giant foxtail (Setaria faberii); assay: Test A postemergence; details: Setaria faberi, post-emergence, 240 h, Postemergence, read-out: Foxtail, Giant plant response rating (0 to 100 scale)
Procedure, shortened: as §1

[12] = test system: pigweed (Amaranthus retroflexus); assay: Test A postemergence; details: Amaranthus retroflexus, post-emergence, 240 h, Postemergence, read-out: Pigweed plant response rating (0 to 100 scale)
Procedure, shortened: as §1

[13] = test system: ragweed (common ragweed, Ambrosia elatior); assay: Test A postemergence; details: Ambrosia artemisiifolia, post-emergence, 240 h, Postemergence, read-out: Ragweed plant response rating (0 to 100 scale)
Procedure, shortened: as §1

[14] = test system: ryegrass, Italian (Italian ryegrass, Lolium multiflorum); assay: Test A postemergence; details: Lolium multiflorum, post-emergence, 240 h, Postemergence, read-out: Ryegrass, Italian plant response rating (0 to 100 scale)
Procedure, shortened: as §1

[15] = test system: wheat (Triticum aestivum); assay: Test A postemergence; details: Triticum aestivum, post-emergence, 240 h, Postemergence, read-out: Wheat plant response rating (0 to 100 scale)
Procedure, shortened: as §1

[16] = test system: barnyardgrass (Echinochloa crus-galli); assay: Test B flooded paddy test; details: Echinochloa crus-galli, 250 g ai/ha, Flood; 0 to 100 scale where 0 is no effect and 100 is complete control; read-out: Barnyardgrass plant response rating
Procedure, shortened: (§2)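 Response scored visually against untreated controls, 0 = no effect and 100 = complete control, 13–15 d after treatment in the greenhouse. Compounds added to paddy water held 3 cm above soil surface. Treatment given at 2-leaf stage.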

[17] = test system: ducksalad (Heteranthera limosa); assay: Test B flooded paddy test; details: Heteranthera limosa, 250 g ai/ha, Flood; 0 to 100 scale where 0 is no effect and 100 is complete control; read-out: Ducksalad plant response rating
Procedure, shortened: as §2

rice (Oryra sativa) = assay: Test B flooded paddy test; details: Oryza sativa, 250 g ai/ha, Flood; 0 to 100 scale where 0 is no effect and 100 is complete control; read-out: Rice plant response rating
Procedure, shortened: as §2

[18] = test system: sedge, umbrella (small-flower umbrella sedge, Cyperus difformis); assay: Test B flooded paddy test; details: Cyperus difformis, 250 g ai/ha, Flood; 0 to 100 scale where 0 is no effect and 100 is complete control; read-out: Sedge, Umbrella plant response rating
Procedure, shortened: as §2

[19] = 125 g ai/ha, preemergence, visual injury rating, approximately 10 d
[20] = 125 g ai/ha, visual rating about 10 d after treatment
[21] = 31 g ai/ha, 0 is no effect, 100 is complete control

O=C1NC[C@H](c2csc3c2CCOC3)[C@H]1C(=O)Nc1cccc(F)c1F [Compound 1279] showed a pest or weed control at 31 g/ha (Kochia (Kochia scoparia) [1]; 31 g ai/ha, Preemergence) of 0%, a pest or weed control at 125 g/ha (Kochia (Kochia scoparia) [1]; [19]) of 0% and a pest or weed control at 31 g/ha ([2]; 31 g ai/ha, Preemergence) of 0%. It also gave a pest or weed control at 125 g/ha [2, 19] of 70%, a pest or weed control at 31 g/ha ([3]; 31 g ai/ha, Preemergence) of 0% and a pest or weed control at 125 g/ha [3, 19] of 20%. The pest or weed control at 31 g/ha ([4]; 31 g ai/ha, Preemergence) was 0%, the pest or weed control at 125 g/ha [4, 19] was 0% and the pest or weed control at 31 g/ha ([5]; 31 g ai/ha, Preemergence) was 0%. It also gave a pest or weed control at 125 g/ha [5, 19] of 0%, a pest or weed control at 31 g/ha ([6]; 31 g ai/ha, Preemergence) of 0% and a pest or weed control at 125 g/ha [6, 19] of 0%. The pest or weed control at 125 g/ha [7, 20] was 30%, the pest or weed control at 31 g/ha [7, 21] was 0% and the pest or weed control at 125 g/ha (Kochia (Kochia scoparia) [8]; [20]) was 0%. For the same molecule, the pest or weed control at 31 g/ha (Kochia (Kochia scoparia) [8]; [21]) was 0%, the pest or weed control at 125 g/ha ([9]; 125 g ai/ha, visual rating about 10 d after treatment, read-out: Barnyardgrass plant response rating (0 to 100 scale, 0 no effect, 100 complete control)) was 50% and the pest or weed control at 31 g/ha ([9]; 31 g ai/ha, 0 is no effect, 100 is complete control, read-out: Barnyardgrass plant response rating (0 to 100 scale)) was 0%. It also gave a pest or weed control at 125 g/ha [10, 20] of 20%, a pest or weed control at 31 g/ha [10, 21] of 0% and a plant injury at 125 g/ha (corn (Zea mays); [20]) of 0%. The plant injury at 31 g/ha (corn (Zea mays); [21]) was 0%, the pest or weed control at 125 g/ha [11, 20] was 20% and the pest or weed control at 31 g/ha [11, 21] was 0%. For the same molecule, the pest or weed control at 125 g/ha [12, 20] was 0%, the pest or weed control at 31 g/ha [12, 21] was 0% and the pest or weed control at 125 g/ha [13, 20] was 0%. It also gave a pest or weed control at 31 g/ha [13, 21] of 0%, a pest or weed control at 125 g/ha [14, 20] of 0% and a pest or weed control at 31 g/ha [14, 21] of 0%. It also gave a plant injury at 125 g/ha [15, 20] of 0%, a plant injury at 31 g/ha [15, 21] of 0% and a pest or weed control at 250 g/ha [16] of 40%. For the same molecule, the pest or weed control at 250 g/ha [17] was 100%, the pest or weed control at 250 g/ha (rice (Oryra sativa)) was 30% and the pest or weed control at 250 g/ha [18] was 0%.
